Read-outs that look alike come from different tables or passages of the source.
Tests used:
human TLR7 = human TLR7 (Homo sapiens (Human), UniProt Q9NYK1); experiment: TLR7 inhibition reporter assay (HEK-Blue cells, SEAP reporter, gardiquimod stimulation); assay type: cell-based
human TLR8 = human TLR8 (Homo sapiens (Human), UniProt Q9NR97); experiment: TLR8 inhibition reporter assay (HEK-Blue cells, SEAP reporter, R848 stimulation);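 note: compounds tested from 0.05 nM to 50 µM, 22 h at 37 °C, SEAP measured with HEK-Blue Detection, inhibition relative to agonist plus DMSO versus a known inhibitor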
human TLR9 = human TLR9 (Homo sapiens (Human), UniProt Q9NR96); experiment: TLR9 inhibition reporter assay (HEK-Blue cells, SEAP reporter, ODN2006 stimulation);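 note: compounds tested over 0.05 nM to 50 µM, 22 h incubation, inhibition taken as SEAP signal drop from agonist plus DMSO wells toward a known inhibitor control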
[1] = HEK-Blue cells overexpressing human TLR7, gardiquimod 7.5 μM
[2] = read-out: TLR8 IC50, HEK-Blue cells overexpressing human TLR8, R848 15.9 μM
[3] = read-out: TLR9 IC50, HEK-Blue cells overexpressing human TLR9, ODN2006 5 nM
[4] = HEK-Blue cells, gardiquimod 7.5 μM
[5] = read-out: TLR8 IC50, HEK-Blue cells, R848 15.9 μM
[6] = read-out: TLR9 IC50, HEK-Blue cells, ODN2006 5 nM

Sequence of human TLR7 (Q9NYK1 27-1049): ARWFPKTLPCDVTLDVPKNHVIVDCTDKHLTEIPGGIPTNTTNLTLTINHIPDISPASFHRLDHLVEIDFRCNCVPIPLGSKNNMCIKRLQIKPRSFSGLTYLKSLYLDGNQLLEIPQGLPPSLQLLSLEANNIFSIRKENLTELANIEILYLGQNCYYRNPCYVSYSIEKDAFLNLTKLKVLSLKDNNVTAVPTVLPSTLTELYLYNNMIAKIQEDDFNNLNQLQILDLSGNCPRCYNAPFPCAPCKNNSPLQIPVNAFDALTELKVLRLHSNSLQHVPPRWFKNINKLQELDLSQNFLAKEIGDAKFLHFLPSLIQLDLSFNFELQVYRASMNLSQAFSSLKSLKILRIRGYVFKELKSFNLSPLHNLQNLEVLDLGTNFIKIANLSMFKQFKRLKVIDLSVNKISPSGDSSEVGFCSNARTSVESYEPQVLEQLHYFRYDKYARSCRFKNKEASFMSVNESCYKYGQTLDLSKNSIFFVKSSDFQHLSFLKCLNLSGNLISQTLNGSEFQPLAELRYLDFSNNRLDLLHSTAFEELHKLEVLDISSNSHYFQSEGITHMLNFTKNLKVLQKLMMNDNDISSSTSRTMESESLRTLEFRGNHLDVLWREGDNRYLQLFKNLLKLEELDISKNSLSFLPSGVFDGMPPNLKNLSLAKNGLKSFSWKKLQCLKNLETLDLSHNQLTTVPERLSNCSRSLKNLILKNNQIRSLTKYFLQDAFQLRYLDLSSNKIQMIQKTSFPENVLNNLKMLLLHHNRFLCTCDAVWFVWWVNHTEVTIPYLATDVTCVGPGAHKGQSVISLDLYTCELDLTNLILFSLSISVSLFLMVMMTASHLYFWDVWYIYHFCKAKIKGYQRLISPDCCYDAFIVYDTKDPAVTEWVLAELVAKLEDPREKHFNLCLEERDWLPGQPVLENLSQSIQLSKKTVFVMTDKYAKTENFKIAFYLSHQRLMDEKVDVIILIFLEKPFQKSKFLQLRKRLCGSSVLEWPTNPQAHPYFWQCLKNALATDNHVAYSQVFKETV
Sequence of human TLR9 (Q9NR96 26-1032): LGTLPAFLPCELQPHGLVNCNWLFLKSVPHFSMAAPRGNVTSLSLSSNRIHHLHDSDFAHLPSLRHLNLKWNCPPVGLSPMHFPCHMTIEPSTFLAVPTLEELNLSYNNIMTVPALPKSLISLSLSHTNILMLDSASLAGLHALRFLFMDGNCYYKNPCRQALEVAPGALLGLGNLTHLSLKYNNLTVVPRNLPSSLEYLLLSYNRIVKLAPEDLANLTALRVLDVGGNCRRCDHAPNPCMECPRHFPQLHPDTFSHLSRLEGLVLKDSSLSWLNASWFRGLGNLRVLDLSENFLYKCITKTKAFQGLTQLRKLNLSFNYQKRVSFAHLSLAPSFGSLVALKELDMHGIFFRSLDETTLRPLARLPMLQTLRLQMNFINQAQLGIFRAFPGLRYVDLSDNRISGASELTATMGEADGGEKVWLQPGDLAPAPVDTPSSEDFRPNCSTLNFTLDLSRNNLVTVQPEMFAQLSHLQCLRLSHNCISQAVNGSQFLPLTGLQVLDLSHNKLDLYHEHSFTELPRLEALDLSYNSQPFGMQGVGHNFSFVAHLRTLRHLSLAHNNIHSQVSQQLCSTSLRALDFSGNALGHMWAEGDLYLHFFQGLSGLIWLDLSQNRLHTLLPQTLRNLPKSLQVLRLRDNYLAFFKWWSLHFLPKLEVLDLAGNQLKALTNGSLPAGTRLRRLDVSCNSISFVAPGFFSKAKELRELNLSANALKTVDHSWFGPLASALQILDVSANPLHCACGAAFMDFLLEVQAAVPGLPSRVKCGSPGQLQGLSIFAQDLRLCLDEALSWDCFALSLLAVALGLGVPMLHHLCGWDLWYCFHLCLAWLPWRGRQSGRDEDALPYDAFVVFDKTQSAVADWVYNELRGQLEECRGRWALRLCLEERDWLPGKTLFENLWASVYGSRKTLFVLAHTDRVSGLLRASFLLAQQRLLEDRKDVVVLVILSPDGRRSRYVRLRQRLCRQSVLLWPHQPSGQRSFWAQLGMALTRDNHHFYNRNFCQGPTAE
Sequence of human TLR8 (Q9NR97 27-1041): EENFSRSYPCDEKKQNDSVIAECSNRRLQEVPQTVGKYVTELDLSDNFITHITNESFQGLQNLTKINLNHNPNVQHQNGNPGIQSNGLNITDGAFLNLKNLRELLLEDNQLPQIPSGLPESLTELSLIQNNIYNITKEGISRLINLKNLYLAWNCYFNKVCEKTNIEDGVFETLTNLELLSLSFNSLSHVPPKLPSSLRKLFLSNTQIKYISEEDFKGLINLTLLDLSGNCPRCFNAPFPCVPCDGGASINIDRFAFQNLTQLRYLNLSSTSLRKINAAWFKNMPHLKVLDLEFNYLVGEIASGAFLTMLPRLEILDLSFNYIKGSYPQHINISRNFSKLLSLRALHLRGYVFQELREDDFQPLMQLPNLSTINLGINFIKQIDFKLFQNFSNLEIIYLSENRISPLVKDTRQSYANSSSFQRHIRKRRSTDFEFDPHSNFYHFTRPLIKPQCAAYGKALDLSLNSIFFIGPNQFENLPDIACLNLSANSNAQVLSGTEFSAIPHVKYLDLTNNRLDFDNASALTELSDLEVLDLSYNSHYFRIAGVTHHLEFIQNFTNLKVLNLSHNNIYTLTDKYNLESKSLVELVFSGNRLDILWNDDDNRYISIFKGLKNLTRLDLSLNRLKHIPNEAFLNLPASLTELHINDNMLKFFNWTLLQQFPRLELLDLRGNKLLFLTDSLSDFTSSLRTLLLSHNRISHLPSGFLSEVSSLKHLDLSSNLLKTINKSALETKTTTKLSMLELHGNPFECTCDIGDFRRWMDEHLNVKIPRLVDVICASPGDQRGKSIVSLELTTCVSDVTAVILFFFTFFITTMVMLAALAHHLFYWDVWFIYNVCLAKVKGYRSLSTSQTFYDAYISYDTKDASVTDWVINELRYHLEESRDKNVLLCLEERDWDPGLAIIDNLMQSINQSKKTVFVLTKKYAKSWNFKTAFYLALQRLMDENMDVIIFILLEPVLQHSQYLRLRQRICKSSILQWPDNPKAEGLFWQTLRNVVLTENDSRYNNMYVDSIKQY

Compound	IC50 (human TLR7; [1])	IC50 (human TLR8; [2])	IC50 (human TLR9; [3])	IC50 (human TLR7; [4])	IC50 (human TLR8; [5])	IC50 (human TLR9; [6])
Cc1cc(-c2[nH]c3ccc(C4CCN(CC(C)(C)C(=O)O)CC4)cc3c2C(C)C)cc(C)n1 [Example 321, 3-(4-(2-(2,6-dimethylpyridin-4-yl)-3-isopropyl-1H-indol-5-yl)piperidin-1-yl)-2,2-dimethylpropanoic acid]	17.1 nM	68.5 nM	> 50000 nM	–	–	–
CNCCN1CCC(c2ccc3[nH]c(-c4ccnc(Cl)c4)c(C)c3c2)CC1 [Example 751, 2-(4-(2-(2-chloropyridin-4-yl)-3-methyl-1H-indol-5-yl)piperidin-1-yl)-N-methylethan-1-amine]	472 nM	55.6 nM	324 nM	–	–	–
Cc1cc(-c2[nH]c3cc(F)c(C4CCN(CC(=O)N(C)C)CC4)cc3c2C(C)C)c(C)cn1 [Example 835, 2-(4-(2-(2,5-dimethylpyridin-4-yl)-6-fluoro-3-isopropyl-1H-indol-5-yl)piperidin-1-yl)-N,N-dimethylacetamide]	–	–	–	2.9 nM	3.4 nM	1950 nM
Cc1cc(-c2[nH]c3ccc(C4CCN(C(=O)CNCC5CCCO5)CC4)cc3c2C(C)C)cc(C)n1 (stereo not drawn) [Example 373, 1-(4-(2-(2,6-dimethylpyridin-4-yl)-3-isopropyl-1H-indol-5-yl)piperidin-1-yl)-2-(((tetrahydrofuran-2-yl)methyl)amino)ethan-1-one]	2.5 nM	17.5 nM	429 nM	–	–	–
Cc1cc(-c2[nH]c3ccc(C4CCN(C(=O)CN5C[C@@H](F)C[C@H]5CO)CC4)cc3c2C(C)C)cc(C)n1 [Example 409, 1-(4-(2-(2,6-dimethylpyridin-4-yl)-3-isopropyl-1H-indol-5-yl)piperidin-1-yl)-2-((2S,4S)-4-fluoro-2-(hydroxymethyl)pyrrolidin-1-yl)ethan-1-one]	4.1 nM	67.9 nM	2530 nM	–	–	–
Cc1cc(-c2[nH]c3ccc(C4CCN(Cc5cncs5)CC4)cc3c2C(C)C)c(F)cn1 [Example 688, 5-((4-(2-(5-fluoro-2-methylpyridin-4-yl)-3-isopropyl-1H-indol-5-yl)piperidin-1-yl)methyl)thiazole]	12.1 nM	2 nM	6190 nM	–	–	–
Cc1cc(-c2[nH]c3ccc(C4CCN(CC(=O)NC5CC5)CC4)cc3c2C(C)C)cc(C)n1 [Example 212, N-cyclopropyl-2-(4-(2-(2,6-dimethylpyridin-4-yl)-3-isopropyl-1H-indol-5-yl)piperidin-1-yl)acetamide]	3.1 nM	6.5 nM	648 nM	–	–	–
Cc1cc(-c2[nH]c3ccc(C4CCN(C(=O)CN5CCN(C)CC5)CC4)cc3c2C(C)C)cc(C)n1 [Example 163, 1-(4-(2-(2,6-dimethylpyridin-4-yl)-3-isopropyl-1H-indol-5-yl)piperidin-1-yl)-2-(4-methylpiperazin-1-yl)ethan-1-one]	0.9 nM	8.4 nM	778 nM	–	–	–
Cc1cc(-c2[nH]c3ccc(C4CCN(CC(O)C(F)(F)F)CC4)cc3c2C(C)C)cc(C)n1 (stereo not drawn) [Example 316, 3-(4-(2-(2,6-dimethylpyridin-4-yl)-3-isopropyl-1H-indol-5-yl)piperidin-1-yl)-1,1,1-trifluoropropan-2-ol]	11.9 nM	2.3 nM	780 nM	–	–	–
Cc1cc(-c2[nH]c3ccc(C4CCN(C(=O)C5CCNCC5)CC4)cc3c2C(C)C)cc(C)n1 [Example 178, (4-(2-(2,6-dimethylpyridin-4-yl)-3-isopropyl-1H-indol-5-yl)piperidin-1-yl)(piperidin-4-yl)methanone]	5.4 nM	27.3 nM	549 nM	–	–	–
Cc1cc(-c2[nH]c3ccc(C4CCN(C(=O)CN5CCOC[C@H]5CO)CC4)cc3c2C(C)C)cc(C)n1 [Example 400, (R)-1-(4-(2-(2,6-dimethylpyridin-4-yl)-3-isopropyl-1H-indol-5-yl)piperidin-1-yl)-2-(3-(hydroxymethyl)morpholino)ethan-1-one]	3.4 nM	16.8 nM	451 nM	–	–	–
Cc1cc(-c2[nH]c3ccc(C4CCN(S(=O)(=O)CC(C)C)CC4)cc3c2C(C)C)ccn1 [Example 548, 5-(1-(isobutylsulfonyl)piperidin-4-yl)-3-isopropyl-2-(2-methylpyridin-4-yl)-1H-indole]	336 nM	700 nM	> 50000 nM	–	–	–
CCc1c(-c2ccnc(F)c2)[nH]c2ccc(C3CCN(C4CCN(CC(C)C)CC4)CC3)cc12 [Example 759, 3-ethyl-2-(2-fluoropyridin-4-yl)-5-(1′-isobutyl-[1,4′-bipiperidin]-4-yl)-1H-indole]	1520 nM	257 nM	655 nM	–	–	–
Cc1cc(-c2[nH]c3ccc(C4CCN(C5CCOC5)CC4)cc3c2C(C)C)c(F)cn1 (stereo not drawn) [Example 725, 2-(5-fluoro-2-methylpyridin-4-yl)-3-isopropyl-5-(1-(tetrahydrofuran-3-yl)piperidin-4-yl)-1H-indole]	3 nM	4.5 nM	2990 nM	–	–	–
Cc1cc(-c2[nH]c3ccc(C4CCN(C5CCNC(C)C5)CC4)cc3c2C(C)C)ccn1 (stereo not drawn) [Example 708, 3-isopropyl-5-(2′-methyl-[1,4′-bipiperidin]-4-yl)-2-(2-methylpyridin-4-yl)-1H-indole]	8.1 nM	6.3 nM	492 nM	–	–	–
CC(C)c1c(-c2ccnc(C(C)(C)O)c2)[nH]c2ccc(C3CCNCC3)cc12 [Example 58, 2-(4-(3-isopropyl-5-(piperidin-4-yl)-1H-indol-2-yl)pyridin-2-yl)propan-2-ol]	31.2 nM	667 nM	888 nM	–	–	–
Cc1cc(-c2[nH]c3cc(F)c(C4CCN(C5CC(C)OC(C)C5)CC4)cc3c2C(C)C)cc(C)n1 (stereo not drawn) [Example 830, 2-(2,6-dimethylpyridin-4-yl)-5-(1-(2,6-dimethyltetrahydro-2H-pyran-4-yl)piperidin-4-yl)-6-fluoro-3-isopropyl-1H-indole]	–	–	–	4.8 nM	17.3 nM	229 nM
Cc1cc(-c2cc3cc(C4CCNCC4)ccc3[nH]2)cc(C)n1 [Example 94, 2-(2,6-dimethylpyridin-4-yl)-5-(piperidin-4-yl)-1H-indole]	536 nM	3140 nM	122 nM	–	–	–
CNCCN1CCC(c2ccc3[nH]c(-c4ccnc(N5CCN(C)CC5)c4)c(C)c3c2)CC1 [Example 746, N-methyl-2-(4-(3-methyl-2-(2-(4-methylpiperazin-1-yl)pyridin-4-yl)-1H-indol-5-yl)piperidin-1-yl)ethan-1-amine]	4030 nM	> 50000 nM	69 nM	–	–	–
Cc1cc(-c2[nH]c3ccc(C4CCN(C(=O)C[C@H](C)O)CC4)cc3c2C(C)C)cc(C)n1 [Example 109, (S)-1-(4-(2-(2,6-dimethylpyridin-4-yl)-3-isopropyl-1H-indol-5-yl)piperidin-1-yl)-3-hydroxybutan-1-one]	10.7 nM	150 nM	41400 nM	–	–	–
CC(C)c1c(-c2ccnc(N)c2)[nH]c2ccc(C3CCN(Cc4cnc[nH]4)CC3)cc12 [Example 817, 4-(5-(1-((1H-imidazol-5-yl)methyl)piperidin-4-yl)-3-isopropyl-1H-indol-2-yl)pyridin-2-amine]	–	–	–	224 nM	56 nM	177 nM
Cc1cc(-c2[nH]c3ccc(C4CCN(CC(=O)N(C)C)CC4)cc3c2C(C)C)c(C)cn1 [Example 642, 2-(4-(2-(2,5-dimethylpyridin-4-yl)-3-isopropyl-1H-indol-5-yl)piperidin-1-yl)-N,N-dimethylacetamide]	16.1 nM	5.6 nM	4100 nM	–	–	–
Cc1cc(-c2[nH]c3ccc(C4CCN(Cc5ncn(C)n5)CC4)cc3c2C(C)C)cc(C)n1 [Example 451, 2-(2,6-dimethylpyridin-4-yl)-3-isopropyl-5-(1-((1-methyl-1H-1,2,4-triazol-3-yl)methyl)piperidin-4-yl)-1H-indole]	5.9 nM	12.2 nM	1560 nM	–	–	–
CCc1c(-c2ccnc(C)c2)[nH]c2ccc(C3CCN(C(=O)c4ccncc4)CC3)cc12 [Example 591, (4-(3-ethyl-2-(2-methylpyridin-4-yl)-1H-indol-5-yl)piperidin-1-yl)(pyridin-4-yl)methanone]	251 nM	241 nM	15400 nM	–	–	–
Cc1cc(-c2[nH]c3cc(F)c(C4CCN(C5CCN(C(C)C)CC5)CC4)cc3c2C(C)C)ccn1 [Example 825, 6-fluoro-3-isopropyl-5-(1′-isopropyl-[1,4′-bipiperidin]-4-yl)-2-(2-methylpyridin-4-yl)-1H-indole]	–	–	–	6.5 nM	8.1 nM	380 nM
CC(=O)NCC(=O)N1CCC(c2ccc3[nH]c(-c4cc(C)nc(C)c4)c(C(C)C)c3c2)CC1 [Example 166, N-(2-(4-(2-(2,6-dimethylpyridin-4-yl)-3-isopropyl-1H-indol-5-yl)piperidin-1-yl)-2-oxoethyl)acetamide]	0.5 nM	79.8 nM	> 50000 nM	–	–	–
CCc1c(-c2ccncc2)[nH]c2ccc(C3CCN(C4CC(C)(C)NC(C)(C)C4)CC3)cc12 [Example 807, 3-ethyl-2-(pyridin-4-yl)-5-(2′,2′,6′,6′-tetramethyl-[1,4′-bipiperidin]-4-yl)-1H-indole]	226 nM	8.6 nM	117 nM	–	–	–
Cc1cc(-c2[nH]c3ccc(C4CCN(C(=O)[C@@H](N)CCCNC(N)=O)CC4)cc3c2C(C)C)ccn1 [Example 564, (S)-1-(4-amino-5-(4-(3-isopropyl-2-(2-methylpyridin-4-yl)-1H-indol-5-yl)piperidin-1-yl)-5-oxopentyl)urea]	202 nM	80.1 nM	6560 nM	–	–	–

From patent publication US10660877B2 (BRISTOL-MYERS SQUIBB COMPANY, priority 2016, dated 2020)
